In patent US5430045A, “Method of reducing or preventing bone marrow hypoplasia” (Free Radical Sciences, Inc., priority 1993, dated 1995):
Several values for one entry are separate records, joined by “and”; a condition that tells them apart may be missing. Equal values may be shown once.

Assays:
[1] = test system: bone marrow; assay: Bone marrow smear differential, cells/femur and myeloid:erythroid ratio, Example 1; type: in vivo, mice
Experimental: Prepared slides were stained and evaluated microscopically.
Statistical tests were performed at the α level of 0.01. Listing of the individual data and summary statistics (mean, standard error and sample size) was provided. The average body weight changes from study day 3 for study days 4-10 and 11-17 and average food consumption for study days 4-10 and 11-17 was analyzed. […] Specifically, the interaction of AZT and procysteine® was evaluated.
Microscopic analysis of the bone marrow smears was conducted by evaluating 500 cells for the differential analysis and 500 cells for the myeloid: erythroid ratio.

[2] = test system: bone marrow; assay: Nucleated cells per femur (bone marrow cells before plating), Example 1; type: in vivo, mice; details: for Nucleated Cells/Femur: M,F,combined in turn
Experimental: (§1) Populations of bone marrow colony forming cells were evaluated. Bone marrow was collected and the stem cell assay conducted, as follows: one femur per mouse was cut at the distal and proximal ends. Using a syringe and 25 gauge needle, 5 mL of IMDM media was flushed through the femur into a collection tube (2.5 mL flushed into one end, then 2.5 ml into the other end). The tube was washed using Iscove's Modified Dulbecco's Media containing 20% fetal bovine serum and the cell concentration was adjusted to the desired count for the colony assay.
(§2) Terminal blood was evaluated for hematological effects, and bone marrow smears and aspirates were counted and 10^4 nucleated cells of the aspirate were cultured 14 days to assess hematopoietic progenitor cells.

[3] = test system: bone marrow; assay: Bone marrow smear differential and M:E ratio, Example 2; type: in vivo, mice
Experimental: (§3) One femur from each mouse was removed and transversely halved. One half was preserved in 10% neutral buffered formalin, then submitted to a histology department for further preparation. The other half of the femur was used to prepare bone marrow smears. […] Prepared slides for bone sections and bone marrow smears were stained (Diff-Quik®) and the smears and sections were evaluated microscopically.
(§4) The difference between the means for groups 3 and 5 and the difference between the means for groups 4 and 6 were compared to the control delta. The significance of the two individual comparisons is designated in the summary statistics listing. Pairwise comparisons of the mean response for group 2 to group 1, group 3 to group 1, group 4 to group 1, group 5 to group 2, and group 6 to group 2 were also performed. The significance of these five comparisons was designated in the summary statistics listing. In total, the significance of seven statistical comparisons (two on the mean differences and five on the mean responses) are indicated in the summary statistics listing.
(§5) Statistical analysis of bone marrow data included an analysis of the results from bone marrow smears (differential count and M:E ratio), analysis of the histopathologic characterization data for bone marrow cellularity, analysis of the bone marrow cellularity on the day of necropsy, analysis of the results of the hematopoietic colony forming assays (based on 10^4 mononuclear bone marrow (cells/dish), and analysis of the number of colony forming units represented per femur (cellularity data multiplied by colony forming data).

[4] = test system: bone marrow colony forming cells; assay: Hematopoietic progenitor colony forming assay of bone marrow, Example 1; parameters: species or system mice; details: mouse, in vivo
Experimental: as §1
In triplicate, the marrow cells were put into a mixture of methylcellulose and plated into 35 mm diameter dishes. The dishes were incubated approximately 2 weeks (37° C., 5% CO2, 100% relative humidity) then manually scored under a microscope for myeloid, erythroid, and mixed colonies.
as §2

[5] = test system: bone marrow; assay: Nucleated cells/femur and colony forming cells, Example 2; type: in vivo, mice
Experimental: Bone marrow colony-forming cells were evaluated. During necropsy, one femur per mouse was cut at the distal and proximal ends. Using a syringe and 25 G needle, 5 ml of Iscove's Modified Dulbecco's Media (IMDM) was flushed through the femur into a collection tube (2.5 ml flushed into one end, then 2.5 ml into the other end). The tube was washed using IMDM containing 20% fetal bovine serum and the cell concentration was adjusted to the desired count for the colony assay. In triplicate, the marrow cells were put into a mixture of methylcellulose, stem cell factor, interleukin-3, granulocyte macrophage--colony stimulating factor, and erythropoietin, and plated into 35 mm diameter dishes. The dishes were incubated 10 days (37° C., 5% CO2, 100% relative humidity) then manually scored under a light microscope for myeloid (white), erythroid (red), and mixed colonies.
as §5

[6] = test system: femoral bone marrow; assay: Histopathology of femoral bone marrow sections, Example 2; type: in vivo, mice
Experimental: (§6) Animals were weighed (not fasted) on study day 59 and euthanized, and specimens were collected as described.
as §3

[7] = test system: peripheral blood; parameters: species or system mice; details: mouse, in vivo
Experimental: An eight week evaluation of the potential for oral Procysteine® to modulate AZT-induced hematologic toxicity in mice was conducted. As noted above, AZT-related bone marrow toxicity, and resultant bone marrow hypoplasia, limits the utility of this drug.
as §6
On study day 59, surviving mice were deeply anesthetized with methoxyflurane in a bell jar. While the mice were deeply anesthetized, blood for hematological analysis was obtained via cardiac puncture using needles/syringes coated with K3 EDTA. While deeply anesthetized, the mice were then euthanized by exsanguination followed by cervical dislocation. Then, bone marrow smears and aspirates were prepared and liver and kidneys were collected as subsequently described in this report.
The following hematology assays were conducted:
Statistical tests were performed at α≈0.01. Listings of the individual data were provided. Summary statistics by sex (mean, standard error and sample size) were provided for the responses for each group and for the differences between groups 1 and 2, between groups 3 and 5 and between groups 4 and 6. The average across weekly intervals for body weight change from study day 3 was analyzed. The average across weekly intervals for food consumption starting with the interval between days 3-4 were analyzed. The model included factors for block, sex and group effects and the group by sex interaction. the interactions with block effect were assumed negligible. Data for both sexes were included in one model to get an overall estimate of the residual standard deviation used in the statistical comparisons.
as §4

[8] = test system: peripheral blood; parameters: species or system mice; details: mouse, in vivo; remark: listed apart in the source
Experimental: On study day 17, the animals were anesthetized with methoxyflurane (in a bell jar). When deeply anesthetized, blood was obtained by cardiac puncture and transferred for hematological analysis into tubes containing an EDTA suspension.
The following hematologic assays were conducted.
Statistical tests were performed at the α level of 0.01. Listing of the individual data and summary statistics (mean, standard error and sample size) was provided. The average body weight changes from study day 3 for study days 4-10 and 11-17 and average food consumption for study days 4-10 and 11-17 was analyzed.

[9] = Histopathology of adrenal, skin and tail, Example 2; parameters: species or system mice; details: mouse, in vivo
[10] = GSH concentrations in blood, liver and kidney by HPLC, Example 2; type: in vivo, mice
[11] = AZT 50 mg/kg/day, M,F,combined in turn
[12] = AZT 500 mg/kg/day, M,F,combined in turn
[13] = 8 weeks, AZT 50/day, F, M in turn
[14] = 8 weeks, AZT 500/day, F, M in turn
[15] = 8 weeks, no AZT, F (N 9), M (N 10) in turn

Cc1cn([C@H]2C[C@H](N=[N+]=[N-])[C@@H](CO)O2)c(=O)[nH]c1=O [AZT]
Bone Marrow-Miscellaneous Cells % [1, 11]: 0.4% and 0.5% | Lymphocyte [1, 11]: 0.047 /Femur × 10**6 and 0.046 /Femur × 10**6 | Bone Marrow-Miscellaneous Cells % [1, 12]: 0.2% | Lymphocyte [1, 12]: 0.022 /Femur × 10**6 and 0.015 /Femur × 10**6 and 0.019 /Femur × 10**6 | metarubricytes (nonproliferating) ([1]; bone marrow smears): marked reduction | rubriblasts ([1]; bone marrow smears): mild reduction | total count of erythroid series cells ([1]; bone marrow smears): reduced total count | nonproliferating compartment of the myeloid series ([1]; mouse, in vivo): reduction | proliferating compartment of the myeloid series ([1]; mouse, in vivo): significantly increased | Nucleated Cells/Femur ([2]; AZT 50 mg/kg/day): 11.7 ×10**6 and 9.9 ×10**6 and 10.8 ×10**6 | Nucleated Cells/Femur ([2]; AZT 500 mg/kg/day): 10.5 ×10**6 and 8.8 ×10**6 and 9.6 ×10**6 | nucleated cells of bone marrow aspirates ([2]; AZT and high-dose AZT/Procysteine, vs controls): significant reduction | erythroid cells in bone marrow smears ([3]; male and female): significant reduction | metarubricytes (nonproliferating) and rubriblasts ([3]; male and female): significantly reduced | total proliferating myeloid and total myeloid cells ([3]; male and female): significantly increased | total colonies and colony forming units-granulocyte/macrophage [4]: significant induction | total number of colonies ([5]; both high dose AZT groups): significant increases | Nucleated Cells/Femur ([5]; males and females, high dose AZT ± Procysteine, vs controls): significantly decreased | Bizarre Mitotic Figures (number of mice) [6, 13]: 0 | Erythroid Hypoplasia (number of mice) [6, 13]: 10 and 6 | General Hypoplasia (number of mice) [6, 13]: 1 | Hemosiderin (number of mice) [6, 13]: 0 | Erythroid Hypoplasia (number of mice) [6, 14]: 9 and 8 | Hemosiderin (number of mice) [6, 14]: 4 and 2 | erythroid or general bone-marrow-hypoplasia ([6]; both doses, both sexes): 36/39 | erythroid hypoplasia ([6]; female mice): 19/20 | erythroid hypoplasia ([6]; male mice): 14/19 | HCT [7]: significant decrease | MCV and MCH [7]: Significant increases | RBC and HGB [7]: Significant decreases | platelets [7]: significant increases | mean corpuscular volume, mean corpuscular hemoglobin, incidence of polychromasia, anisocytosis, macrocytes and Howell-Jolly bodies [8]: increases | total hemoglobin concentration, hematocrit and erythrocyte counts [8]: significant (p<0.01) decreases | epidermal melanin-like pigment of tail [9]: accumulation of epidermal melanin-like pigment | Blood GSH ([10]; mouse, in vivo): significantly decreased with increasing AZT dose

O=C1N[C@H](C(=O)O)CS1 [Procysteine]
Bone Marrow-Miscellaneous Cells % ([1]; no AZT, M,F,combined in turn): 1.0% and 1.2% and 1.1% | Lymphocyte ([1]; no AZT, M,F,combined in turn): 0.130 /Femur × 10**6 and 0.141 /Femur × 10**6 and 0.135 /Femur × 10**6 | Myeloid:Erythroid Ratio ([1]; no AZT, M,F,combined in turn): 1.59 and 1.58 | Nucleated Cells/Femur ([2]; no AZT): 12.8 ×10**6 and 12.0 ×10**6 and 12.4 ×10**6 | erythroid series cells ([3]; female mice): only a mild decrease | myeloid series cells ([3]; female mice): no meaningful alterations | bone marrow status ([3]; male mice): normal bone marrows | Bizarre Mitotic Figures (number of mice) [6, 15]: 0 | Erythroid Hypoplasia (number of mice) [6, 15]: 0 | General Hypoplasia (number of mice) [6, 15]: 0 | Hemosiderin (number of mice) [6, 15]: 0 | Normal bone marrow (number of mice) [6, 15]: 9 and 10 | AZT-induced bone marrow pathology / hypoplasia ([6]; eight weeks of cotreatment): significantly ameliorated | HCT [7]: 39.6% | MCV [7]: 51 fL | Retic [7]: 1.4% | WBC [7]: 2.1 10^3 /μl | blood GSH concentrations vs AZT-only treated groups ([10]; at 0, 50, and 500 mg/kg/day AZT): higher
